Key:
[1] = AUC of compound related materials after oral dosing of Compound B forms; format: in vivo; conditions: 250 mg free acid equivalents, formulated tablets, N=4 cynomolgus monkeys
Procedure: Referring to FIG. 8, the area under the curve (AUC) of compound related materials was compared following dosing of 250 mg of Compound B as powder in capsules of free acid (PIC), formulated tablets of micronized free acid, or formulated tablets of the Na or K salt of Compound B given at the same free acid equivalents. (N=4 cynomolgus monkeys). The formulated, compressed tablet also contained in each case approximately 40.5% lactose, 16.8% microcrystalline cellulose, 1.9% Croscarmellose sodium, 0.5% colloidal silicon dioxide, and 0.9% magnesium stearate.

PGC-1α = assay: Expression of PGC-1α mRNA in precursor BAT cells with norepinephrine (quantitative PCR); format: cell-based, mice; conditions: for PGC-1α mRNA in the presence of norepinephrine: 3 μM compound for seven days, then 1 μM norepinephrine for 2 hours
Procedure: Another example of the ability of augmented signaling between cyclic nucleotides and compounds of Formula I is shown by the effect on expression of PGC-1a, a known regulator of mitochondrial biogenesis. Increased numbers of mitochondria are predictive of utility for the reduction of body weight.
Precursor BAT cells were isolated as described above and treated with or without 3 μM compounds: 1.] Compound A: 5-(4-(2-(5-ethylpyridin-2-yl)-2-oxoethoxy)benzyl)-1,3-thiazolidine-2,4-dione; 2.] Compound C: 5-(4-(2R)-2-(5-ethylpyridin-2-yl)-2-hydroxyethoxyy)benzyl)-1,3-thiazolidine-2,4-dione; or Compound B: 5-(4-(2-(3-methoxyphenyl)-2-oxoethoxy)benzyl)-1,3-thiazolidine-2,4-dione for seven days followed by treatment with 1 μM norepinephrine for 2 hours. Total RNA was isolated from the cells and the RNA message (mRNA) for PGC-1α was measured by quantitative polymerase chain reactions.

BAT precursor cells = assay: BAT differentiation: UCP1 protein by Western blot; format: cell-based, mice; conditions: BAT precursor cells treated with 0.1 to 10 μM for 7 days
Procedure: Precursors of BAT are isolated from the interscapular adipose pad of either normal or diabetic mice and cultured in vitro as described below based on the modifications recited in Petrovic N, Shabalina I G, Timmons J A, Cannon B, Nedergaard J. Am. J. Physiol. Endocrinol. Metab. 295:E287-E296, 2008, hereby incorporated by reference.
The brown fat pads are pooled and minced, digested for 45 minutes in isolation buffer containing 0.15% (wt/vol) collagenase. The cell suspension is filtered through a 100 μm nylon filter and centrifuged at 200×g for 5 minutes. […]
Cells are then treated with the compounds, compound salts, or co-crystals thereof being assayed for BAT differentiation. […] The development of the BAT phenotype is assessed by direct measure of the uncoupling protein 1 (UCP1), which is emblematic of brown adipose cells.
Following treatment of the cells, the growth medium is aspirated, rinsed with PBS, and lysed with KHM buffer containing 1% Igepal CA-630, and a protease inhibitor cocktail. The lysate is centrifuged at 8,000×g for 5 minutes (4° C.), the supernatant containing the cell lysate is collected and total protein analyzed using the BCA method. […] Densitometry is conducted on the scanned films using ImageJ software and analyzed using GraphPad Prism software. […]

diabetic KKAy mouse = assay: Blood glucose lowering in diabetic KKAy mouse; format: in vivo; conditions: diabetic KKAy mice (N=6), gavage once daily, plasma glucose after 4 daily doses
Procedure: In these experiments, free base or sodium salt was given to diabetic KKAy mice (N=6) and blood glucose was measured after 4 days of daily treatment at the doses indicated. KKAy mice, 8-12 weeks of age, were given the doses of the compounds according to the dosages on the X axis of FIG. 9. The compounds were given by gavage once daily at 10 mg/kg. On the fifth day (after 4 daily doses at the levels show) a blood sample was taken to measure plasma glucose.

[2] = Bioavailability of sodium salt of Compound A, crossover, oral capsule versus iv injection; format: in vivo; conditions: 90 mg free base equivalents, 4 male cynomolgus monkeys
Procedure: The monkeys fasted overnight and were dosed by oral gavage washed down with 10 ml tap water. Blood samples were taken at 0.25, 0.5, 1, 2, 3, 4, 6, 9, 12, 24, and 48 hours after a single dosage was administered and assayed for drug related materials with a LCMS assay using an internal standard. 90 mg of drug was put in 00 gelatin capsules containing 90 mg of free base equivalents. This was compared to an iv injection of 2 ml/kg and 45 mg of free base solution in 50% hydroxypropyl b-cyclodextran. The absolute availability versus an iv injection was determined for both parent compound and major metabolite.

With `COc1cccc(C(=O)COc2ccc(CC3SC(=O)[N-]C3=O)cc2)c1.[Na+]` (stereo not shown) [sodium salt of Compound B, Sodium 5-{4-[2-(3-methoxyphenyl)-2-oxoethoxy]benzyl}-2,4-dioxo-1,3-thiazolidin-3-ide] the “bioavailability (AUC of compound related materials) versus free acid” value [1] was “significantly higher bioavailability”.
For `COc1cccc(C(=O)COc2ccc(CC3SC(=O)NC3=O)cc2)c1` (stereo not shown) [Compound B, 5-(4-(2-(3-methoxyphenyl)-2-oxoethoxy)benzyl)-1,3-thiazolidine-2,4-dione], the “PGC-1α mRNA in the presence of norepinephrine” value (from here on “PGC-1α mRNA in the presence”) (PGC-1α) was “increase”.
In the case of `NC[C@H](O)c1ccc(O)c(O)c1` [norepinephrine, reference compound], the “PGC-1α mRNA, norepinephrine alone” value (PGC-1α; absence of compound (control), 1 μM norepinephrine for 2 hours) is reported as “did not produce an increase”.
In the case of `CCc1ccc([C@@H](O)COc2ccc(CC3SC(=O)NC3=O)cc2)nc1` (stereo partly shown) [Compound C], the “PGC-1α mRNA in the presence” value (PGC-1α) is reported as “increase”.
For `COc1cccc(C(=O)COc2ccc(CC3SC(=O)[N-]C3=O)cc2)c1.[K+]` (stereo not shown) [potassium salt of Compound B, Potassium 5-{4-[2-(3-methoxyphenyl)-2-oxoethoxy]benzyl}-2,4-dioxo-1,3-thiazolidin-3-ide], the “bioavailability (AUC of compound related materials) versus free acid” value [1] was “significantly higher bioavailability”.
In the case of `CCc1ccc(C(=O)COc2ccc(CC3SC(=O)NC3=O)cc2)nc1` (stereo not shown) [5-(4-(2-(5-ethylpyridin-2-yl)-2-oxoethoxy)benzyl)-1,3-thiazolidine-2,4-dione], the “amount of UCP1 (Western blot)” value (BAT precursor cells) is reported as “dose-dependent increase”.
For `CCc1ccc(C(=O)COc2ccc(CC3SC(=O)NC3=O)cc2)nc1` (stereo not shown) [Compound A, 5-(4-(2-(5-ethylpyridin-2-yl)-2-oxoethoxy)benzyl)-1,3-thiazolidine-2,4-dione], the “PGC-1α mRNA in the presence” value (PGC-1α) was “increase”.
For `CCc1ccc(C(=O)COc2ccc(CC3SC(=O)[N-]C3=O)cc2)nc1.[Na+]` (stereo not shown) [sodium salt of Compound A, Sodium 5-{4-[2-(5-ethylpyridin-2-yl)-2-oxoethoxy]benzyl}-2,4-dioxo-1,3-thiazolidin-3-ide], the lowering blood glucose (diabetic KKAy mouse) was “excellent dose response”, the “absolute bioavailability of major metabolite versus free base” value [2] was “significantly higher bioavailability” and the “absolute bioavailability of parent compound versus free base” value [2] was “significantly higher bioavailability”.

— US20120322728A1, “PPAR-SPARING THIAZOLIDINEDIONES AND COMBINATIONS FOR THE TREATMENT OF DIABETES MELLITUS AND OTHER METABOLIC DISEASES” (Metabolic Solutions Development Company, LLC, priority 2009, published 2012)
